{
  "source": "patent US9238020B2",
  "about": "“Compositions comprising enzyme-cleavable phenol-modified tapentadol prodrug” (priority 2010, dated 2016)",
  "key": {"[1]": {"test": "Oral administration of tapentadol prodrugs with or without co-dose of trypsin inhibitor Compound 109 to rats", "assay_type": "in vivo, rat", "details": "by suppressing Cmax and AUC and/or delaying Tmax", "experimental": "Saline solutions of Compound TP-1 (which can be prepared as described in the examples herein) were dosed at 39 μmol/kg (25 mg/kg) with or without a co-dose of 55 μmol/kg (30 mg/kg) Compound 109 (Catalog No. 3081, Tocris Bioscience, Ellisville, Mo., USA or Catalog No. WS38665, Waterstone Technology, Carmel, Ind., USA) as indicated in Table 3 via oral gavage into jugular vein-cannulated male Sprague Dawley rats (4 per groups) that had been fasted for 16-18 hr prior to oral dosing. At specified time points, blood samples were drawn, harvested for plasma via centrifugation at 5,400 rpm at 4° C. for 5 min, and 100 μl plasma transferred from each sample into a fresh tube containing 2 μl of 50% formic acid. The tubes were vortexed for 5-10 seconds, immediately placed in dry ice and then stored in a −80° C. freezer until analysis by HPLC/MS.\nTable 3 and FIG. 5 provide tapentadol exposure results for rats administered with Compound TP-1 in the absence or presence of trypsin inhibitor.\nSaline solutions of Compound TP-3 or Compound TP-4 (which can be prepared as described in the examples herein) were dosed as indicated in Table 9 and according to the procedures as described in Example 13. Sampling and analysis procedures were as described in Example 13. […]"}, "[2]": {"test": "Pharmacokinetics of prodrug and tapentadol following IV administration to rats", "details": "male, Sprague Dawley, in vivo; Table 7; prodrug in rat plasma; IV 2 mg/kg; read-out: Prodrug Cmax ± sd", "experimental": "Compound TP-1 (which can be prepared as described in the examples herein) was dissolved in saline and injected into the tail vein of 4 jugular vein-cannulated male Sprague Dawley rats at a dose of 2 mg/kg. At specified time points, blood samples were drawn, harvested for plasma via centrifugation at 5,400 rpm at 4° C. for 5 min, and 100 μl plasma transferred from each sample into a fresh tube containing 2 μl of 50% formic acid. The tubes were vortexed for 5-10 seconds, immediately placed in dry ice and then stored in a −80° C. freezer until analysis by high performance liquid chromatography/mass spectrometry (HPLC/MS).\nTable 2 and FIG. 4 provide Compound TP-1 and tapentadol exposure results for rats administered Compound TP-1 intravenously. Results in Table 2 are reported as maximum plasma concentration (Cmax) of Compound TP-1 and tapentadol (TP), respectively, (average±standard deviation).\nCompound TP-3 or Compound TP-4 (which can be prepared as described in the examples herein), or tapentadol were dissolved in saline and injected into the tail vein of four jugular vein-cannulated male Sprague Dawley rats at a dose of 2 mg/kg. Sampling and analysis procedures were as described in Example 12."}, "[3]": {"test": "Pharmacokinetics of tapentadol release following PO administration of prodrugs or tapentadol to rats", "assay_type": "in vivo, rat", "details": "approximately equimole amounts", "experimental": "Saline solutions of Compound TP-1 (which can be prepared as described in the examples herein) were dosed as indicated in Table 1 via oral gavage into 4 jugular vein-cannulated male Sprague Dawley rats that had been fasted for 16-18 hr prior to oral dosing. At specified time points, blood samples were drawn, harvested for plasma via centrifugation at 5,400 rpm at 4° C. for 5 min, and 100 microliters (μl) plasma transferred from each sample into a fresh tube containing 2 μl of 50% formic acid. The tubes were vortexed for 5-10 seconds, immediately placed in dry ice and then stored in a −80° C. freezer until analysis by HPLC/MS.\nSaline solutions of Compounds TP-1, TP-3, TP-4, (which can be prepared as described in the examples herein) or tapentadol were dosed in approximately equimole amounts as indicated in Table 6. Dose administration, sampling and analysis procedures were as described in Example 11.\nDosing, sampling and analysis procedures were as described in Example 11."}, "trypsin": {"molecular_target": "T1, trypsin (Bos taurus, UniProt P00760)", "T1 construct": "purchased Sigma-Aldrich T8003; host or cells: bovine pancreas", "T1 sequence (P00760 24-246)": "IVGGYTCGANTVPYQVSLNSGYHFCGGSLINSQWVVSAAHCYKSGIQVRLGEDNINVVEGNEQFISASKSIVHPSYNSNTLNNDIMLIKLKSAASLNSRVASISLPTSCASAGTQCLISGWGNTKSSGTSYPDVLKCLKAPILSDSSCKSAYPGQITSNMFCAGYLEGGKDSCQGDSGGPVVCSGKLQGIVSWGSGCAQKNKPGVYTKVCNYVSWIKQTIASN", "test": "In vitro trypsin conversion of prodrug to tapentadol and inhibition thereof by Compound 109", "assay_type": "biochemical, bovine", "details": "bovine, trypsin from bovine pancreas, Table 8, 4815 BAEE U trypsin/mL, read-out: Pro-drug trypsin half-life, Average ± sd (converted)", "experimental": "(§1) Compound TP-1 was incubated with trypsin from bovine pancreas (Catalog No. T8003, Type I, ˜10,000 BAEE units/mg protein, Sigma-Aldrich). Specifically, the reactions included 0.761 nM of Compound TP-1•2HCl, 22.5 mM calcium chloride, 40 to 172 mM Tris pH 8 and 0.25% DMSO with the BAEE units of trypsin indicated in Table 4. The reactions were conducted at 37° C. for 24 hr. Samples were collected at specified time points, transferred into 0.5% formic acid in acetonitrile to stop trypsin activity and stored at less than −70° C. until analysis by LC-MS/MS.\n(§2) Compound TP-1 was also incubated in the presence of 2 micromolar (μM) trypsin inhibitor Compound 109. In that case, Compound TP-1 was added 5 min after the other incubation components. Other reaction and sample treatment conditions were as described above.\n(§3) Table 4 indicates the results of exposure of Compound TP-1 to trypsin in the absence or presence of trypsin inhibitor. The results are expressed as half-life of prodrug when exposed to trypsin (i.e., Prodrug trypsin half-life) in hours and rate of tapentadol (TP) formation in umol/h/BAEE U trypsin.\n(§4) Compound TP-1, Compound TP-3, or Compound TP-4 (which can be prepared as described in the examples herein) were incubated in the absence or presence of Compound 109 as shown in Table 8. Incubations and analysis procedures were as described in Example 14."}, "[4]": {"molecular_target": "T2, trypsin from bovine pancreas (Bos taurus, UniProt P00760)", "T2 construct": "purchased Sigma-Aldrich T8003; host or cells: bovine pancreas", "T2 sequence (P00760 24-246)": "T1 sequence (P00760 24-246)", "test": "In vitro trypsin conversion of prodrug to tapentadol and inhibition thereof by Compound 109", "assay_type": "biochemical", "details": "Table 8, 4815 BAEE U trypsin/mL", "experimental": "as §1, §2, §3, §4"}, "human μ-opioid receptor": {"molecular_target": "human μ-opioid receptor (Homo sapiens, UniProt P35372)", "sequence (P35372 whole entry)": "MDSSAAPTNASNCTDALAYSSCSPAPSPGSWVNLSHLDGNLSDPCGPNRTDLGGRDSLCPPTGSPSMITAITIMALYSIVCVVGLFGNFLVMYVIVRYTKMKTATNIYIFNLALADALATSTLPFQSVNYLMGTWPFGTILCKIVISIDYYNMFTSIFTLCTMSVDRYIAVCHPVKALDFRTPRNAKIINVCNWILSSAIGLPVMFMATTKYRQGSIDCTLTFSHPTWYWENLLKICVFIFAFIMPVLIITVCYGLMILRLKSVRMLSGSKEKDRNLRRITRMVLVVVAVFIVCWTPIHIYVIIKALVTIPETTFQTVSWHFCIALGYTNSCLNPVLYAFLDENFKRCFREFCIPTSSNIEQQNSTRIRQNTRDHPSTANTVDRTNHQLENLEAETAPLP", "test": "In vitro human μ-opioid receptor agonist cellular functional assay (cAMP, CHO cells)", "assay_type": "cell-based", "parameters": "expressed in transfected cells", "details": "CHO cells expressing human μ-opioid receptor, 37° C., 10 min", "experimental": "The general procedure follows the protocol described by J.-B. Wang, et al, ibid. More specifically, the assay included as appropriate, Compound TP-1 or tapentadol and recombinant Chinese hamster ovary (CHO) cells expressing the human μ-opioid receptor on their cell surfaces. The control reaction included 1 μM DAMGO. The reaction mixtures were incubated at 37° C. for 10 min, and the reaction product was cyclic AMP (cAMP). The samples were submitted to homogeneous time resolved fluorescence (HTRF®). EC50 values (concentration producing a half-maximal specific response) were determined by non-linear regression fit using Hill plot software."}, "[5]": {"test": "Plasma and cerebrospinal fluid penetration following IV administration to rats", "assay_type": "in vivo, rat", "details": "rats, IV, 2 minutes after dosing", "experimental": "Compound TP-1 (which can be prepared as described in the examples herein) at a dose of 10 mg/kg, or tapentadol, at a dose of 4 mg/kg, were dissolved in saline and injected into the tail vein of 4 male Sprague Dawley rats. These doses represent approximately equimole amounts. After 2 minutes, the rats were anesthetized by carbon dioxide asphyxiation, blood samples were drawn and harvested for plasma by centrifugation at 5,400 rpm at 4° C. for 5 min, and 100 μl plasma was transferred from each sample into a fresh tube containing 2 μl of 50% formic acid. The CSF fluid was collected using a 22×1 inch gauge needle connected to polyurethane catheter type MRE-040 tubing (Braintree Scientific, Inc., Braintree, Mass.). The needle was inserted just below the nuchal crest at the area of the foramen magnum, and clear CSF fluid was collected into the catheter and transferred into a collection tube. The CSF samples were centrifuged at 5,400 rpm at 4° C. for 5 min, and 100 μl CSF fluid was transferred from each sample into a fresh tube. The plasma and CSF samples were immediately placed in dry ice and then stored in a −80° C. freezer until analysis by high performance liquid chromatography/mass spectrometry (HPLC/MS). In order to study Compound TP-1 and tapentadol plasma and CSF penetration over time, additional groups of 4 rats were administered compounds as described above and anesthetized at specified time points. Plasma and CSF were collected and analyzed as described above.\nResults in Table 14 are reported, for each group of four rats, as mean concentrations of the indicated compounds in plasma or CSF. Table 14 also provides the plasma-to-CSF (plasma/CSF) partitioning coefficient, i.e., the ratio of concentration in the plasma to concentration in the CSF of the indicated compounds."}, "[6]": {"tested_on": "norepinephrine uptake into rat hypothalamus synaptosomes", "test": "In vitro functional norepinephrine uptake assay", "assay_type": "biochemical", "experimental": "The general procedure follows the protocol described by S. Perovic and W. E. G. Muller, 1995, Arzneim-Forsch. Drug Res. 45, 1145-1148. More specifically, the assays included each of the compounds indicated in Table 13 and rat hypothalamus synaptosomes incubated with 0.2 μCi/mL [^3H] norepinephrine. For a control reaction, protriptyline was used. The reaction mixtures were incubated at 37° C. for 20 min, and the reaction product of [^3H] norepinephrine incorporation into the synaptosomes was measured by scintillation counting. IC50 values (concentration causing a half-maximal inhibition of control specific activity) were determined by non-linear regression fit using Hill plot software."}, "[7]": {"details": "pH 8, with Compound 109 (trypsin inhibitor), Compound 109 40 μM"}, "[8]": {"details": "TP-1 10 mg/kg, tapentadol 4 mg/kg"}},
  "note": "“Also recorded” adds a separate entry of the source. Counter-ions that a name gives are not always drawn. Like-named read-outs stand apart in the source and are kept apart here.",
  "data": [
    {"smiles": "N=C(N)c1ccc2cc(OC(=O)c3ccc(N=C(N)N)cc3)ccc2c1", "note": "[Compound 109, 6-carbamimidoylnaphthalen-2-yl 4-(diaminomethyleneamino)benzoate]", "values": [
      {"measurement": "effect of co-dosed Compound 109 on release of tapentadol from prodrug", "setting": "[1]", "result": "attenuates Compound TP-1's ability to release tapentadol; also recorded: attenuates the abilities of both Compound TP-3 and Compound TP-4 to release tapentadol; also recorded: can attenuate the abilities of both Compound TP-1 and Compound TP-3 to release tapentadol"}
    ]},
    {"smiles": "CC[C@@H](c1cccc(OC(=O)N(C)CCNC(=O)[C@H](CCCCN)NC(=O)CC(=O)O)c1)[C@@H](C)CN(C)C", "note": "[Compound TP-3, N—[(S)-5-Amino-1-(2-{[3-((1R,2R)-3-dimethylamino-1-ethyl-2-methyl-propyl)-phenoxycarbonyl]-methyl-amino}-ethylcarbamoyl)-pentyl]-malonamic acid]", "values": [
      {"measurement": "Cmax", "setting": "[2]", "result": "1460 ± 99", "unit": "ng/mL"},
      {"measurement": "tapentadol plasma concentration profile compared to administration of tapentadol", "setting": "[3]", "result": "suppressed Cmax and delayed Tmax"},
      {"measurement": "half-life at 0.761 nM", "setting": "trypsin; [7]", "result": "12.2 ± 0.33", "unit": "h"},
      {"measurement": "half-life at 0.761 nM", "setting": "trypsin; pH 8, Compound 109 0 μM", "result": "0.271 ± 0.0023", "unit": "h"},
      {"measurement": "Rate of TP formation, Average ± sd", "setting": "[4]; Compound 109 0 μM", "result": "0.0258 ± 0.0024", "unit": "umol/h/BAEE U"},
      {"measurement": "Rate of TP formation, Average ± sd", "setting": "[4]; Compound 109 40 μM", "result": "0.0048 ± 0.0000", "unit": "umol/h/BAEE U"}
    ]},
    {"smiles": "CC[C@@H](c1cccc(OC(=O)N(C)CC(C)(C)CNC(=O)[C@H](CCCNC(=N)N)NC(=O)CC(=O)O)c1)[C@@H](C)CN(C)C", "note": "[Compound TP-4, N—[(S)-1-(3-{[3-((1R,2R)-3-Dimethylamino-1-ethyl-2-methyl-propyl)-phenoxycarbonyl]-methyl-amino}-2,2-dimethyl-propylcarbamoyl)-4-guanidino-butyl]-malonamic acid]", "values": [
      {"measurement": "Cmax", "setting": "[2]", "result": "988 ± 89", "unit": "ng/mL"},
      {"measurement": "tapentadol plasma concentration profile compared to administration of tapentadol", "setting": "[3]", "result": "suppressed Cmax and delayed Tmax"},
      {"measurement": "half-life at 0.761 nM", "setting": "trypsin; [7]", "result": "1.76 ± 0.22", "unit": "h"},
      {"measurement": "half-life at 0.761 nM", "setting": "trypsin; pH 8, Compound 109 0 μM", "result": "0.0823 ± 0.0028", "unit": "h"},
      {"measurement": "Rate of TP formation, Average ± sd", "setting": "[4]; Compound 109 0 μM", "result": "0.0753 ± 0.0007", "unit": "umol/h/BAEE U"},
      {"measurement": "Rate of TP formation, Average ± sd", "setting": "[4]; Compound 109 40 μM", "result": "0.028 ± 0.0004", "unit": "umol/h/BAEE U"}
    ]},
    {"smiles": "CC[C@@H](c1cccc(O)c1)[C@@H](C)CN(C)C", "note": "[Tapentadol, 3-[(1R,2R)-3-(dimethylamino)-1-ethyl-2-methylpropyl]phenol hydrochloride]", "values": [
      {"measurement": "agonist response in the μ-opioid receptor functional assay", "setting": "human μ-opioid receptor", "result": "no response up to a concentration of 10 μM"},
      {"measurement": "Compound conc. in CSF", "setting": "[5]; [8]", "result": 179, "unit": "ng/mL"},
      {"measurement": "Compound conc. in Plasma", "setting": "[5]; [8]", "result": 1870, "unit": "ng/mL"},
      {"measurement": "Plasma/CSF partitioning coefficient", "setting": "[5]; ratio of concentration in plasma to concentration in CSF", "result": 10.4},
      {"measurement": "IC50", "setting": "[6]; [3H] norepinephrine incorporation into rat hypothalamus synaptosomes, 37° C., 20 min", "result": 390, "unit": "nM"},
      {"measurement": "activity as a norepinephrine reuptake inhibitor", "setting": "[6]; rat hypothalamus synaptosomes", "result": "has activity as a norepinephrine reuptake inhibitor"}
    ]}
  ]
}
